We go through one molecule from PMC7948422, “Repurposing p97 inhibitors for chemical modulation of the bacterial ClpB–DnaK bichaperone system” (The Journal of Biological Chemistry, 2020).

“Also recorded” adds a separate entry of the source.

One experiment has as its system E. coli MC4100ΔclpB. The experiment can be described thus: Bacterial growth and viability, MC4100ΔclpB. It is filed as cell-based, Escherichia coli. The note with it: 37 °C. How it is done: E. coli MC4100, MC4100ΔclpB, dnaK103, and dnaK756 strains were used to determine an influence of DBeQ on bacterial growth and viability. Bacteria were maintained in the LB media, and in the case of the MC4100ΔclpB strain, LB was supplemented with 30 μg/ml kanamycin. All experiments were initiated by preparing overnight cultures inoculated from single colonies and grown at 37 °C. The dnaK103 and dnaK756 overnight cultures were grown at 30 °C. On the following day, the cultures were diluted 100-fold in 10 ml of LB without antibiotics and incubated at 37 °C. The culture optical density was monitored at 600 nm. When absorbance at 600 nm reached 0.4, the culture was divided into 1-ml aliquots and supplemented with 10 μl of DMSO or different concentrations of DBeQ in DMSO. The samples were immediately transferred into an incubator/shaker at temperature 37, 45, or 50 °C. Bacteria were cultured for up to 4 h with shaking (200 RPM). At specific time points, 100 μl of each culture was withdrawn and serially diluted in sterile 0.9% NaCl up to 10^6-fold dilution. To estimate the number of viable cells, 5 μl or 10 μl of the diluted cultures was spread on the LB-agar plate without an antibiotic. […] On the following day, the bacterial colonies were counted and the colony-forming units/ml were calculated.

The target of the next experiment is T1, ClpB (Escherichia coli, UniProt P63284).
T1 construct: made in house
The experiment in a line: Pilot chemical library screen of ClpB ATPase (BioMol Green). Format: biochemical. The note with it: 388 bioactive compounds, in the presence of 25 μM κ-casein. How it is done:
An absorbance-based assay for ClpB ATPase activity was developed by using BioMol Green Reagent (Enzo Life Sciences, Farmington, NY) for screening in a 384-microplate–based format. The optimized assay conditions were as follows: ClpB (150 nM), ATP ([…]), and κ-casein (25 μM) in 100-mM Tris/HCl, pH 8, 10-mM MgCl2, 1-mM DTT, and 1-mM EDTA. The samples were incubated for 10 min at 37 °C, and the ATP hydrolysis reaction was terminated by adding 80 μl of BIOMOL Green. Absorbance at 620 nm was measured with a PerkinElmer EnSpire. The optimized assay was used to screen compounds drawn from Selleck Bioactive library (1900 compounds; Selleck Chemicals, Houston, TX) in the presence or absence of κ-casein.

Another experiment has as its target T2, ClpB hexamers (Escherichia coli, UniProt P63284).
T2 construct: made in house
The experiment can be described thus: Sedimentation velocity analytical ultracentrifugation of ClpB. Conditions: 50 µM DBeQ, 1 mM ATPγS, 1 mg/ml ClpB. How it is done:
Protein samples (0.5 ml) of wt ClpB and its variants W462F and W543F were dialyzed against 3 changes of 1 l of buffer AUC (50-mM Tris-HCl, pH 7.4, 200-mM KCl, 20-mM MgCl2, 1-mM EDTA, 0.5-mM TCEP). After dialysis, the samples were centrifuged (15 min, 13,000 RPM, 4 °C). The supernatants were collected, and the protein concentration was determined with the Bradford assay. Sedimentation velocity experiments were performed in Beckman Optima XL-I analytical ultracentrifuge equipped with a 4-cell rotor and 2-sector cells. The ClpB samples were diluted to 1 mg/ml in the AUC buffer supplemented with DMSO (5% (v/v) final concentration) with 1-mM ATPɤS, with or without 50-μM DBeQ. Centrifugation was performed at 48,000 RPM at 20 °C. The sedimentation profiles were collected using the interference detection system and analyzed with the Origin software supplied by the instrument manufacturer using the time-derivative method of Stafford ([71]). Observed sedimentation coefficients were corrected to values corresponding to the density and viscosity of water (s20,w) using Sednterp software (www.jphilo.mailway.com) with additional corrections for the presence of 5% DMSO ([72]).

T1 sequence (P63284 whole entry): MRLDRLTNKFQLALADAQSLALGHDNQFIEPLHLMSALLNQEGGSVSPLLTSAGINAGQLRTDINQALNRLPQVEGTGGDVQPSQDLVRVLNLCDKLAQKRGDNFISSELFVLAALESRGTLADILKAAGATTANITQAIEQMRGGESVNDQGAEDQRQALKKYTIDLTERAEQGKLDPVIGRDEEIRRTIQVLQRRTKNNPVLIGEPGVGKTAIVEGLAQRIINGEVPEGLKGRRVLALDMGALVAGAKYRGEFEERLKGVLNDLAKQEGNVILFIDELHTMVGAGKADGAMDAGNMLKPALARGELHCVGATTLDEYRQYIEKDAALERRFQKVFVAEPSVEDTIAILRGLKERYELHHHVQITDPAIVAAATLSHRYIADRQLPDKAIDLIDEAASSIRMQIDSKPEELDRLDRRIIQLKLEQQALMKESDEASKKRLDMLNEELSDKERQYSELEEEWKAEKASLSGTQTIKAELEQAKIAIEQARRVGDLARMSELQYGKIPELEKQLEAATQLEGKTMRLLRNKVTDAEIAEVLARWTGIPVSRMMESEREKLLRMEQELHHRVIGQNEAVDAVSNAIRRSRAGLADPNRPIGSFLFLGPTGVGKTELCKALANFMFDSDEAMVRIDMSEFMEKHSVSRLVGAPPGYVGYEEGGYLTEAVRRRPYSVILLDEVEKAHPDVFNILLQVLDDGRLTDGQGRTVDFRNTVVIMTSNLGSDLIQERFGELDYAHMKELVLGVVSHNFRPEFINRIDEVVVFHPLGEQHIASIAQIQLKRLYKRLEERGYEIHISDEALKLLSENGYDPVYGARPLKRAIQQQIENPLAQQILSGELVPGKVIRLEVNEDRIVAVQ
T2 sequence (P63284 whole entry): as above

For `c1ccc(CNc2nc(NCc3ccccc3)c3ccccc3n2)cc1` [DBeQ, N^2,N^4-dibenzylquinazoline-2,4-diamine], in the experiment on E. coli MC4100ΔclpB, the “effect on growth of ΔclpB strain” value is “nearly eliminated; also recorded: effects were eliminated”. Further, the “candidate ClpB ATPase inhibitor in pilot screen” value at ClpB is “candidate ClpB ATPase inhibitor”. For the same molecule, the “dissociation of ClpB hexamers” value on ClpB hexamers is reported as “does not induce dissociation”.
